Data as given in ChEMBL document CHEMBL1201862, “PubChem BioAssay data set” (2004).
The source made the active and inactive calls.

Assays:
[1] = HepG2 cell cytotoxicity, dose response, cytotoxicity control, cherry-picked samples (AID 1159577); assay type: functional, cell-based
[2] = P. falciparum Dd2 growth inhibitors, dose response, SYBR Green, cherry-picked samples (AID 1159567); assay type: functional, cell-based
[3] = target: Eukaryotic translation initiation factor 4E (Mus musculus, UniProt P63073); assay: eIF4E–eIF4G protein interaction inhibitors, dose response, biochemical, TR-FRET (AID 855); assay type: functional;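 note: potency for disrupting eIF4E binding to eIF4GI seen as loss of FRET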
Eukaryotic translation initiation factor 4E, sequence (P63073 whole entry): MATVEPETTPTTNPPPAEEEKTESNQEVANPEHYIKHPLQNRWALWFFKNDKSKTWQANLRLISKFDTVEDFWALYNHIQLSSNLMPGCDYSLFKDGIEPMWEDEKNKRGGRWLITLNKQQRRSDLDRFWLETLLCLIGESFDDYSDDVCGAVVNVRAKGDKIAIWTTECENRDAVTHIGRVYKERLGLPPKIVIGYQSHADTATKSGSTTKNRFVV

[4] = insulin promoter down-regulators in MIN6 cells, imaging, high-content screening, mouse beta cells (AID 1628); assay type: functional
[5] = cytotoxicity in MIN6 insulinoma cells, dose response, cytotoxicity control, cell-based, mouse insulinoma (AID 2122); assay type: functional;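 note: confirmatory high-throughput counterscreen run to flag cytotoxic compounds; mouse MIN-6 beta cells carrying an insulin promoter eGFP reporter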
[6] = target: T1, Protein Tat (Human immunodeficiency virus type 1 group M subtype B (isolate HXB2)(HIV-1), UniProt P04608); assay type: functional;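 note: tat binding to TAR RNA read out by fluorescence polarization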
T1 sequence (P04608 whole entry): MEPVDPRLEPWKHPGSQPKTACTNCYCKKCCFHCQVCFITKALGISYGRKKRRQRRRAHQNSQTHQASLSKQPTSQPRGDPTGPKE

[7] = target: T2, Bcl-2-like protein 10 (Homo sapiens, UniProt Q9HD36); assay: displacers of TR3 peptide from Bcl-B, primary screen, selectivity assay for Bfl-1 inhibitor project, biochemical, fluorescence polarization, FITC-TR3 peptide (AID 748);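 note: fluorescence polarization from a fluorescein-labelled TR3 peptide binding purified Bcl-B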
T2 sequence (Q9HD36 whole entry): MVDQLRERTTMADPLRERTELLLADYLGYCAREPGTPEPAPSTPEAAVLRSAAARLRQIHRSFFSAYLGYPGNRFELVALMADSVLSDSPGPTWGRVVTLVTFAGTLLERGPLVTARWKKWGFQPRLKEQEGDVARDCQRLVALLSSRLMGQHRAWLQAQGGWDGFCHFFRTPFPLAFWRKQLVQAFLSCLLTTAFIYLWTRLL

[8] = target: Cytochrome P450 2C19 (Homo sapiens, UniProt P33261); assay: Cytochrome panel assay with activity outcomes. Panel member name: p450-cyp2c19 Compounds with AC50 equal or less than 10 uM are considered active; assay type: functional
Cytochrome P450 2C19, sequence (P33261 whole entry): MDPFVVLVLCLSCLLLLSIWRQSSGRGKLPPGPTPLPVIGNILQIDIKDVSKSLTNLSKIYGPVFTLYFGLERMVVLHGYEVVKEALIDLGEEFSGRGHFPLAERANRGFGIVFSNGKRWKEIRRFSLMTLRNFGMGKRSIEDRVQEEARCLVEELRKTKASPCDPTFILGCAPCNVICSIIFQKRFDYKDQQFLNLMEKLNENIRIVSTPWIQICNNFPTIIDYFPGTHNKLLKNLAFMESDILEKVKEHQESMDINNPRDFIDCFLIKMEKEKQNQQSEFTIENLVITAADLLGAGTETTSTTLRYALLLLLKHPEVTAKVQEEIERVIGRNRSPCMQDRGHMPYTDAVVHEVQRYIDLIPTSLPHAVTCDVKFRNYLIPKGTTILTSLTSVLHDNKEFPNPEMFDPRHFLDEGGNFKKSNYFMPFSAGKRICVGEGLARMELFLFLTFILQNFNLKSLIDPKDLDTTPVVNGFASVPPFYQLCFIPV

[9] = target: Cytochrome P450 2C9 (Homo sapiens, UniProt P11712)
Cytochrome P450 2C9, sequence (P11712 whole entry): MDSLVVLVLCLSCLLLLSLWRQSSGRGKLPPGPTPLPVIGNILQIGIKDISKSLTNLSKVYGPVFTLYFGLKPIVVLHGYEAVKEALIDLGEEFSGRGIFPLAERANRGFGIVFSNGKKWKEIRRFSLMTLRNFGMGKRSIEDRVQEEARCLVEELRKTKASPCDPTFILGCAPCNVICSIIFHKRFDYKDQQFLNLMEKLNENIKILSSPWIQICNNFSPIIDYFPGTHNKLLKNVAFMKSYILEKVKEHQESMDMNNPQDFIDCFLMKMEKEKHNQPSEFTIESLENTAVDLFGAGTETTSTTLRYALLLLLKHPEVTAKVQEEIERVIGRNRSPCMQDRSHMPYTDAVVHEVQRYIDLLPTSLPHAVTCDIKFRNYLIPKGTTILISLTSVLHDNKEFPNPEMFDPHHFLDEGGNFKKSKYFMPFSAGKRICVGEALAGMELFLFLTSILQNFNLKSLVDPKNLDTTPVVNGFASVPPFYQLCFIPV

[10] = cells
[11] = Luminescence-based cell-based high throughput dose response assay to identify activators of the DAF-12 from the parasite S. stercoralis (ssDAF-12).; assay type: functional
[12] = target: T3, Oxysterols receptor LXR-beta (Homo sapiens, UniProt P55055); assay: LXR agonists, Gal4 luciferase reporter, dose response, counter-screen for ssDAF-12 agonist project, cell-based, luminescence, HEK293, S. stercoralis campaign (AID 720737); assay type: functional; conditions: read-out: IC50 (the source's name)
T3 sequence (P55055 whole entry): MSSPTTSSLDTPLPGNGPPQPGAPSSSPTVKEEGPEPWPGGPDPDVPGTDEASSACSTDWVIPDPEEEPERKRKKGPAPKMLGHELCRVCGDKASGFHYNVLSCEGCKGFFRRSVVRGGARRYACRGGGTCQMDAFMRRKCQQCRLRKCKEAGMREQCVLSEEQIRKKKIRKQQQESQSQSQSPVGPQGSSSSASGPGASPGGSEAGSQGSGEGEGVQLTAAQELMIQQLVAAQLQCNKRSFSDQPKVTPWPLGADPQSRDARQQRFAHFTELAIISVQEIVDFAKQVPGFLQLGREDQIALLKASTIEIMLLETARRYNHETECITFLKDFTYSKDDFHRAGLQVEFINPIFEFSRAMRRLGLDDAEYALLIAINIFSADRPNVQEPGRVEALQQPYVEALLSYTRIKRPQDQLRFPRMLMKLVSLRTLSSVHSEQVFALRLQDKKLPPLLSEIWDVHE

[13] = target: T3, Oxysterols receptor LXR-beta; assay type: functional, cell-based
[14] = target: T4, Alkaline phosphatase, tissue-nonspecific isozyme (Homo sapiens, UniProt P05186); assay: human TNAP enzyme inhibitors, SAR follow-up, biochemical, luminescent, dose response (AID 1056)
T4 sequence (P05186 whole entry): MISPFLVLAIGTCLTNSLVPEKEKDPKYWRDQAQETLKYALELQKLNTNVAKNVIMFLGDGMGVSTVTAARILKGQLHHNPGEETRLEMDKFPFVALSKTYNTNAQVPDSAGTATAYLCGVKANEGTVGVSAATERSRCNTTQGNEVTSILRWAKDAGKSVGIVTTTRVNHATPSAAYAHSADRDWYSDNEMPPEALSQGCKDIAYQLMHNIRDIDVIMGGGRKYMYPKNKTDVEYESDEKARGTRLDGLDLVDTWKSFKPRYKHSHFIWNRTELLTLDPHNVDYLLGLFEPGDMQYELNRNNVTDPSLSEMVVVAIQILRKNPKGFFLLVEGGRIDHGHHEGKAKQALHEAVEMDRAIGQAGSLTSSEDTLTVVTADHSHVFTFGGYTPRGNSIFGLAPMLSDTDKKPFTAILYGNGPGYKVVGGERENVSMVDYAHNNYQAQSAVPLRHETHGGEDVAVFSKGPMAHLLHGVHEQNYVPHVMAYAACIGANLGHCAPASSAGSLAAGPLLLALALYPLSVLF

[15] = target: Glyceraldehyde-3-phosphate dehydrogenase (Homo sapiens, UniProt P04406)
Glyceraldehyde-3-phosphate dehydrogenase, sequence (P04406 whole entry): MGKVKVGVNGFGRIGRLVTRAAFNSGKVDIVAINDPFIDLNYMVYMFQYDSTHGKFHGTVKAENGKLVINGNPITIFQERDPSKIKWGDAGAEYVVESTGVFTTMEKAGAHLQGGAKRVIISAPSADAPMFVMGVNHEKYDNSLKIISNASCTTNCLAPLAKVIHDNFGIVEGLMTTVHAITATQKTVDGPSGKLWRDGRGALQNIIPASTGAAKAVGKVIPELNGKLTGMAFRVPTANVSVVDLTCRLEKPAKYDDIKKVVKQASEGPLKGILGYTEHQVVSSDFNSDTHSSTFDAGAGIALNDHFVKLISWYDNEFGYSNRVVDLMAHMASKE

[16] = P. falciparum ATP4 D1247Y mutant growth inhibitors, dose response, NITD609-resistant line, SYBR Green, dry powder (AID 1159571); assay type: functional, cell-based;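 note: parasites synchronized at ring stage by sorbitol before testing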
[17] = P. falciparum 3D7-ScDHODH growth inhibitors, dose response, SYBR Green, dry powder samples (AID 1159570); assay type: functional, cell-based;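 note: parasite growth measured after 72 hours of compound exposure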
[18] = P. falciparum Dd2 growth inhibitors, dose response, SYBR Green, dry powder samples (AID 1159566); assay type: functional, cell-based;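 note: potency for growth inhibition with lower SYBR green DNA signal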
[19] = intracellular Trypanosoma cruzi inhibitors in host cells – cell-based, plate reader, cherry-pick samples, set 3, dose response (AID 651818); assay type: functional;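 note: compounds incubated with infected cells for about four days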
[20] = target: T5, Carboxy-terminal domain RNA polymerase II polypeptide A small phosphatase 1 (Homo sapiens, UniProt Q9GZU7); assay: inhibitors of CTDSP1, concentration-response testing, biochemical assay, absorbance-based, actives from ultra-high-throughput screening (AID 540297); assay type: functional
T5 sequence (Q9GZU7 whole entry): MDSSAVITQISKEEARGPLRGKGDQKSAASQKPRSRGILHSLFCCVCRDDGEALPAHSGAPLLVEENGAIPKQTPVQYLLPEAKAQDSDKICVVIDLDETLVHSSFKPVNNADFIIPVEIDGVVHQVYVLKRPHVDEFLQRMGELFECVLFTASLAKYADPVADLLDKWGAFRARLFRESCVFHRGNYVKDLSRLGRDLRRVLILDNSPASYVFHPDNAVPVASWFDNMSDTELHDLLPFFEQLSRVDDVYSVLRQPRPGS

[21] = target: DNA dC->dU-editing enzyme APOBEC-3A (Homo sapiens, UniProt P31941); assay: Dose Response confirmation of small molecule APOBEC3A DNA Deaminase Inhibitors via a fluorescence-based single-stranded DNA deaminase assay. [Related pubchem assays (depositor defined):AID493011, AID493024]; assay type: functional
DNA dC->dU-editing enzyme APOBEC-3A, sequence (P31941 whole entry): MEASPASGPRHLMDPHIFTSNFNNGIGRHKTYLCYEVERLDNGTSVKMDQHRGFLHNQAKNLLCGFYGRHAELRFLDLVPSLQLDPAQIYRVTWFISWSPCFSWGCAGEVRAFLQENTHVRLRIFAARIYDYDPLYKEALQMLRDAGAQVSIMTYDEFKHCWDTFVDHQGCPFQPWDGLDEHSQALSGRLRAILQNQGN

[22] = target: DNA dC->dU-editing enzyme APOBEC-3G (Homo sapiens, UniProt Q9HC16); assay type: functional;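 note: Dose-response counterscreen measuring inhibition of APOBEC3G DNA deaminase activity, run while confirming APOBEC3A inhibitors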
DNA dC->dU-editing enzyme APOBEC-3G, sequence (Q9HC16 whole entry): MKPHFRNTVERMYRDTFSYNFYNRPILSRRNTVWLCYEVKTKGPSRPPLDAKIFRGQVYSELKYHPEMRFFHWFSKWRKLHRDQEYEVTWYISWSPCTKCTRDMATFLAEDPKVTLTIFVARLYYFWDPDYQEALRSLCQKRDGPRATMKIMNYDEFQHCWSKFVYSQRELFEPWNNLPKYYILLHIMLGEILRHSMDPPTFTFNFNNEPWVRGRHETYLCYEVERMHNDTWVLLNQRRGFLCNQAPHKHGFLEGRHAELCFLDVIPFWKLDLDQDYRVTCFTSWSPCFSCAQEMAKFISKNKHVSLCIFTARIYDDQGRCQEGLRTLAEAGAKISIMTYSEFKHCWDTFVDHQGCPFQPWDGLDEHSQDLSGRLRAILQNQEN

[23] = target: Prothrombin (Homo sapiens, UniProt P00734); assay: Thrombin 1536 HTS Dose Response Confirmation. [Related pubchem assays: 1046 (Thrombin 1536 HTS; hits were confirmed in this assay)]; assay type: functional
[24] = cells; assay type: functional
[25] = HepG2 cell cytotoxicity, dose response, cytotoxicity control for non-replicating M. tuberculosis project (AID 489018); assay type: functional; conditions: Mycobacterium tuberculosis
[26] = HEK293 cell cytotoxicity, dose response, cytotoxicity control, plate reader, cherry-picked samples (AID 743446); assay type: functional, cell-based
[27] = test system: HEK293; assay: inhibitors of LMP1-driven NF-kB reporter, dose response, cell-based, HEK293, luciferase, cherry-pick (AID 588343); assay type: functional; conditions: Homo sapiens
[28] = Luminescence Cell-Based Dose Confirmation HTS to Identify Inhibitors of Platelet Dense Granule Release. [Related pubchem assays: 1663 (Primary HTS), 1678 (Summary of Project)]; assay type: functional
[29] = target: Luciferin 4-monooxygenase (Photinus pyralis, UniProt P08659); assay: firefly luciferase enzyme inhibitors, dose response, biochemical, luminescence (AID 1891)
Luciferin 4-monooxygenase, sequence (P08659 whole entry): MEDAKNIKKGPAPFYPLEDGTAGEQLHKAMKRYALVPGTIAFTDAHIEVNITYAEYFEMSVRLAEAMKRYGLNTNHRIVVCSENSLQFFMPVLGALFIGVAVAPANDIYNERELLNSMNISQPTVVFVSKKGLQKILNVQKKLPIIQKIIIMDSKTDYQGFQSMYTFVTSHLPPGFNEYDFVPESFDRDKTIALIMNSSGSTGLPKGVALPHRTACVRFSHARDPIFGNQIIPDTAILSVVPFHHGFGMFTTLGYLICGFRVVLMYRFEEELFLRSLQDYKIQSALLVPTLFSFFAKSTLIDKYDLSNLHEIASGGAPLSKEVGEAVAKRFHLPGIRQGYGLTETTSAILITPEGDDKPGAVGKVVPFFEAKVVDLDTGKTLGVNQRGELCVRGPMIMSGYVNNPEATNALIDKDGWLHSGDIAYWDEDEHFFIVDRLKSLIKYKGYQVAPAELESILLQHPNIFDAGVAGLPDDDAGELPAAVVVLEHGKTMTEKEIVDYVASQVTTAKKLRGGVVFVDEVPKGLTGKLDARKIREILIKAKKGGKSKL

[30] = HepG2 cell cytotoxicity, dose response, cytotoxicity control, plate reader, cherry-pick, antagonist series (AID 743416); assay type: functional, cell-based
[31] = LGR2 antagonists, dose response, cell-based, HEK293, CRE-luciferase reporter, cherry pick, set 2 (AID 743343); assay type: functional;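 note: transfected cells were stimulated with diluted bursicon conditioned medium after compound addition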
[32] = MC4R antagonists, dose response, counter-screen for LGR2 antagonist project, cell-based, plate reader, cherry pick (AID 743444); assay type: functional;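 note: transfected HEK 293 cells stimulated with alpha-MSH peptide; potency of inhibitors of the alpha-MSH evoked signal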
[33] = A549 cell cytotoxicity, dose response, cytotoxicity control, plate reader, cherry-pick, antagonist series (AID 743412); assay type: functional, cell-based

Structure (SMILES): CCCNC(=O)N1[C@H](CO)[C@H](c2ccc(C3=CCCCC3)cc2)[C@H]1CNC(C)C
- AC50 [1]: 39.6 µM (active)
- AC50 [2]: 5.26 µM (active)

Structure (SMILES): Cc1cc(O)c(/C=N/OCc2ccc(Cl)cc2Cl)c(=O)o1
- IC50 [3]: 50 µM (inactive)

Structure (SMILES): Cc1ccc(-n2c(SCC(=O)NCC3CCCO3)nc3nnc(C)c-3c2N)cc1Cl (centres undefined)
- IC50 [4]: 2.21 µM (active)
- IC50 [5]: 4.6 µM (active)

Structure (SMILES): COc1ccc(CCNC(=O)/C=C/c2ccco2)cc1
- IC50 [6]: > 100 µM (active)

Structure (SMILES): Cc1cc[n+]2c3c(cccc13)CCC2
- IC50 [7]: 63.2 µM (inactive)

Structure (SMILES): Cc1cc(C)c(S(=O)(=O)NCC2CCC(C(=O)N3CCC4(CC3)OCCO4)CC2)c(C)c1 (centres undefined)
- IC50 [6]: > 100 µM (active)

Structure (SMILES): C[C@@H]1CN([C@@H](C)CO)C(=O)c2cc(C#CCc3ccccc3)cnc2O[C@H]1CN(C)CC1CCCC1
- AC50 [1]: 14.2 µM (active)
- AC50 [2]: 1.31 µM (active)

Structure (SMILES): COc1ccc(CN2CCN(C(=O)CC(C)C)CC2)c(OC)c1OC
- AC50 [8]: 25.1 µM (inconclusive)
- IC50 [3]: > 64 µM (inactive)
- AC50 [9]: inconclusive

Structure (SMILES): COc1ccc(-c2cn3ccc4ccccc4c3n2)cc1
- EC50 [10]: > 67.5 µM (inactive)
- IC50 [11]: > 67.5 µM (inactive)
- EC50 [12]: > 67.5 µM (inactive)
- EC50 [13]: > 67.5 µM (inactive)

Structure (SMILES): O=C1C(Cl)=C(Cl)C(=O)N1c1nnc(Cc2ccccc2)[nH]1
- IC50 [14]: 3.24 µM (active)
- IC50 [15]: > 100 µM (not active)

Structure (SMILES): O=c1cc(CCl)nc2sc3ccccc3n12
- IC50 [3]: 50 µM (inactive)

Structure (SMILES): C[C@@H]1CN([C@H](C)CO)C(=O)c2cccc(NC(=O)Nc3cccc4ccccc34)c2O[C@@H]1CN(C)C(=O)Nc1ccc(C(F)(F)F)cc1
- AC50 [16]: 1.21 µM (active)
- AC50 [17]: 1.15 µM (active)
- AC50 [2]: 1.59 µM (active)
- AC50 [18]: 1.37 µM (active)
- AC50 [19]: 7.71 µM (active)

Structure (SMILES): COc1ccccc1C#Cc1ccc([C@H]2[C@@H](C#N)N(C(=O)C3CC3)[C@H]2CO)cc1
- AC50 [16]: 1.69 µM (active)
- AC50 [17]: 1.35 µM (active)
- AC50 [18]: 0.692 µM (active)

Structure (SMILES): COc1cc(-c2nc3ccccc3c(=O)n2N)cc(OC)c1OC
- IC50 [11]: > 67.5 µM (inactive)
- EC50 [12]: > 67.5 µM (inactive)

Structure (SMILES): Cc1cc(C(=O)NCc2ccc(C(=O)O)o2)c(C)o1
- IC50 [20]: 4.04 µM (active)
- IC50 [21]: 31 µM (active)
- IC50 [22]: 45.9 µM (active)

Structure (SMILES): COc1cccc(-c2cc(C(=O)Nc3c(C)nn(Cc4ccccc4)c3C)no2)c1
- IC50 [23]: > 50 µM (not active)

Structure (SMILES): COc1ccc(N2CC(C(=O)NCc3ccco3)CC2=O)cc1 (centres undefined)
- IC50 [21]: 39.6 µM (active)
- IC50 [22]: 21.2 µM (active)

Structure (SMILES): CCOc1ccc(C(=O)Nc2ccc(N3CCN(C)CC3)cc2)cc1Br
- IC50 [24]: 31.4 µM (active)
- IC50 [7]: 0.558 µM (active)
- CC50 [25]: > 20 µM (active)

Structure (SMILES): O=C(O)c1ccc(/N=C/c2nc(-c3ccco3)oc2O)cc1
- IC50 [23]: > 50 µM (not active)

Structure (SMILES): C[n+]1ccccc1/C=C/c1ccccc1Cl
- IC50 [21]: 2.25 µM (active)
- IC50 [22]: 2.41 µM (active)

Structure (SMILES): Cc1ccc(Cn2cnc3ccccc32)cc1
- IC50 [4]: 4.89 µM (active)
- IC50 [5]: 4.02 µM (active)

Structure (SMILES): O=C1[C@H]2CC=CC[C@H]2C(=O)N1c1nnc(Cc2ccc(F)cc2)[nH]1
- IC50 [14]: 4.2 µM (active)
- IC50 [15]: > 100 µM (not active)

Structure (SMILES): CCOc1ccc(C(=O)Nc2cc(C)ccn2)cc1
- AC50 [26]: 22.1 µM (active)
- AC50 [27]: 2.17 µM (active)
- EC50 [28]: 2.45 µM (active)
- EC50 [29]: 1.19 µM (active)
- AC50 [30]: 24.6 µM (active)
- AC50 [31]: 4.55 µM (active)
- AC50 [32]: 2.97 µM (active)
- AC50 [33]: 21 µM (active)
